{"source": "patent US20040022788A1", "about": "“Compositions and methods for promoting or inhibiting angiogenesis” (priority 1998, published 2004)", "key": {"[1]": {"tested_on": "HUVEC", "assay": "HUVEC cell proliferation assay (CyQUANT)", "assay_type": "cell-based, human", "procedure": "Cell Proliferation Assay. HUVEC were plated at a density of 5000 cells/well in media depleted of fetal calf serum (FCS) overnight to allow the cells to become quiescent. Fresh media containing 5% FCS, 10 ng/ml basic fibroblast growth factor (bFGF) and 3 ng/ml vascular endothelial growth factor (VEGF) were added to the wells along with angiostatin (1.0 μM), antibody directed against the recombinant human alpha-subunit of ATP synthase (1:10 dil), antibody directed against the recombinant human beta-subunit of ATP synthase (1:10 dil), pre-immune serum (1:10 dil) or cycloheximide ([…]). Cell density was measured after 24 hrs using CyQUANT Cell Proliferation Assay Kit (Molecular Probes) in a fluorometric plate reader (Molecular Devices). The absorbance values used to calculate the percent proliferation of the cells ranged from 1.24 or 1.00 for treated and 2.57 for untreated."}, "[2]": {"target": "T1, purified bovine F1 ATP synthase (Bos taurus, UniProt P00829+P19483)", "T1 construct": "from tissue; host or cells: bovine heart mitochondria", "assay": "F1 activity assay (ATPase, coupled NADH oxidation at 340 nm)", "assay_type": "biochemical", "settings": "NaN3 2%", "procedure": "FIG. 12 is a bar graph showing the inhibition of purified F1 ATP synthase by angiostatin. Purified F1 ATP synthase activity was measured spectrophotometrically at λ=340 nm by coupling the production of ADP to the oxidation of NADH via the pyruvate kinase and lactate dehydrogenase reaction in which a decrease in the absorbance at λ=340 nm indicates active protein (dark six membered rings). […] Control antibodies had no effect on activity (light circles and squares). Representative data shown, n=3.\nPurification of Bovine Heart F1 ATP Synthase and F1 Activity Assay. Fresh bovine heart mitochondria were obtained as previously described (23) and sonicated to yield sub-mitochondrial particles (24). The F1 portion was separated from membrane-bound FO by chloroform extraction. The aqueous layer was centrifuged at 105,000×g to remove particulate matter before purifying over an S300 gel filtration column. […] ATPase activity was measured spectrophotometrically by monitoring at λ=340 nm by coupling the production of ADP to the oxidation of NADH via pyruvate kinase and lactate dehydrogenase reactions as described in Zheng,& Ramirez, Biochem Biophys Res Commun 261(25):499-503 (1999)."}, "[3]": {"target": "T2, ATP synthase on the surface of HUVEC (Homo sapiens, UniProt P05496+P06576+P25705)", "T2 construct": "endogenous in cells; host or cells: HUVEC (primary human umbilical vein endothelial cells)", "assay": "Cell-surface ATP generation by bioluminescent luciferase assay", "assay_type": "cell-based", "settings": "oligomycin (0.1 mg/mL per method), 50 μM ADP", "procedure": "Cell-surface ATP Assay. […] Cells were treated with (1 μM) angiostatin or (0.1 mg/mL) oligomycin for 1 hr at 37° C. All cells were then incubated with 0.1 Ci ^32P and 0.1 Ci ([…]) [2,8-^3H]-ADP (NEN Life Sciences) for 1 min. Supernatants were removed and centrifuged before assaying for ATP production by thin layer chromatography (TLC) or by firefly luciferase assay. ATP Generation by Bioluminescent Luciferase Assay. […] Louis, Mo.). In this firefly luciferin-luciferase reaction, only ATP is readily detected since the enzymatic reaction of firefly luciferase to oxidize luciferin is specific for ATP relative to all other nucleotides. Samples were injected with the ATP assay mixture and recordings were made in a LuminoskanRS (LabSystems, Franklin, Mass.) over a 10 s period. The response in a given sample or standard was quantified as area under the peak of the response and averaged for duplicate determinations. Data are expressed as picomoles of ATP produced per cell based on standards determined under the same conditions with each experiment. Angiostatin was prepared as described in Sottrup-Jensen, […]., Petersen, T. E. & Magnusson, S. (1978) Progress in Chemical Fibrinolysis and Thrombolysis (Raven Press, New York)."}, "[4]": {"tested_on": "angiostatin binding site on HUVEC", "assay": "Competition binding assay, 125I-labeled angiostatin on HUVEC", "set-up": "species or system human", "procedure": "FIG. 6. Competition binding assay between angiostatin and the antibody against the alpha subunit of ATP synthase from E. coli. […] Cells were washed and remaining bound radioactivity was quantified by γ-counting. Non-specific binding was measured in the presence of excess unlabeled angiostatin and was subtracted from total binding. […] Competition studies were also performed simultaneously using rabbit pre-immune serum to account for non-specific inhibition. Error bars represent standard deviation. A 1 tailed homoscedastic t test was used for statistical analysis; p<0.10.\nBinding Assays. Ligands were radioiodinated by using Iodobeads (Pierce), repurified on L-lysine-Sepharose, eluted with 100 mM ε-aminocaproic acid, and dialyzed in PBS, pH 7.0 before use in binding assays. […] Nonspecific binding was measured in the presence of excess unlabeled ligand."}, "[5]": {"target": "T3, recombinant alpha subunit of human ATP synthase (Homo sapiens, UniProt P25705)", "T3 construct": "His tag; made in house; host or cells: E. coli BL21DE3", "assay": "Ligand blot binding to the recombinant alpha subunit of ATP synthase", "procedure": "FIGS. 7A-7E. Angiostatin binding to the recombinant alpha subunit of human ATP synthase. The alpha subunit of human ATP synthase was cloned and expressed in E. coli and purified using Qiagen's nickel-Sepharose protein purification system before dialyzing in phosphate buffered saline (PBS), pH 7.0. Recombinant protein was electrophoresed on 5-15% SDS-PAGE, electroblotted onto Immobilon™ membrane and incubated 18 h in 10 mM Tris-HCl, 0.15M NaCl, 0.05% NP40, pH 7.5 (TSN) containing ^125I-angiostatin. For competition studies, unlabeled ligand was added 4 h prior to radiolabeled ligand. Blots were washed in TSN buffer containing 0.05% Tween80 and bound radioactivity was quantified on a Molecular Dynamics PhosphorImager™.\nPurification of the alpha-Subunit of ATP Synthase. Competent E. coli BL21DE3 were transformed with the pET24a(+) vector containing the alpha subunit, plated on 2× Bacto-yeast tryptone (YT) agarose, and grown overnight at 37° C. Twenty milliliters of 2× YT containing […] kanamycin was inoculated with one colony and grown overnight at 37° C. (200 rpm). A 1-liter culture (2× YT, […] kanamycin) was inoculated with 20 ml of the noninduced overnight culture and grown at 37° C. to an OD of 0.6 at a wavelength of 600 nm. Isopropyl […] was added to a final concentration of 1 mM and grown for an additional 3 h. Cells were harvested by centrifugation at 8,000 rpm for 10 min and stored overnight at −20° C. Lysates were prepared under denaturing conditions and batch-purified by using Qiagen Ni-NTA agarose. Resulting protein was dialyzed against PBS, pH 7.0 for use in all experiments."}, "[6]": {"tested_on": "HUVEC", "assay": "Direct binding of 125I-labeled plasminogen or angiostatin to endothelial cells, Scatchard analysis", "set-up": "species or system human", "settings": "125I-labeled ligand, 1 h at 4° C., read-out: apparent dissociation constant (Kd)", "procedure": "FIGS. 1A and 1B. Direct binding assay and Scatchard analysis of plasminogen and angiostatin with endothelial cells. HUVEC were plated at a density of 10,000 cells/well and incubated with increasing concentrations of ^125I-labeled-plasminogen or angiostatin. FIG. 1A. ^125I-labeled plasminogen binding was concentration-dependent and saturable with an apparent dissociation constant ([…]) of 158 nM and 870,000 sites/cell. FIG. 1B. […] Error bars represent standard deviation.\n(§1) Binding Assays. Ligands were radioiodinated by using Iodobeads (Pierce), repurified on L-lysine-Sepharose, eluted with 100 mM ε-aminocaproic acid, and dialyzed in PBS, pH 7.0 before use in binding assays. HUVEC were plated at a density of 5,000 or 10,000 cells/well and incubated with increasing concentrations of ^125I-labeled ligand in media containing 1% BSA for 1 h at 4° C. in 96-well plates. Wells were washed, and remaining bound radioactivity was quantified by using an LKB 1272 γ-radiation counter. Nonspecific binding was measured in the presence of excess unlabeled ligand."}, "[7]": {"tested_on": "plasminogen binding sites on HUVEC", "assay": "Competition binding assay, 125I-labeled plasminogen on HUVEC", "set-up": "species or system human", "settings": "1.0 μM 125I-labeled plasminogen; 25-fold molar excess of unlabeled plasminogen", "procedure": "FIG. 2. Competition binding assay between plasminogen and angiostatin. HUVEC were plated at a density of 10,000 cells/well and incubated with 1.0 μM ^125I-labeled plasminogen in the presence of 100-fold molar excess of unlabeled angiostatin for 1 h at 4° C. Cells were washed and the remaining radioactivity was quantified by γ-counting.\nas §1"}}, "note": "“Also recorded” adds a separate entry of the source."}
{"molecule": "C[C@@H]1C[C@@H]([C@H](O)CC2CC(=O)NC(=O)C2)C(=O)[C@@H](C)C1", "note": "[Cycloheximide]", "values": [{"measurement": "inhibition at 10 µg/mL", "setting": "[1]; Homo sapiens, HUVEC, 24 h, read-out: Percent Inhibition (+/− S.E.M.) of HUVEC proliferation", "value": 100, "unit": "%"}, {"measurement": "cellular morphology of treated cells", "setting": "[1]; compared with untreated cells, data not shown", "value": "obvious rounded morphology"}]}
{"molecule": "[N-]=[N+]=[N-].[Na+]", "note": "[NaN3, reference compound]", "values": [{"measurement": "inhibition of purified F1 ATPase activity", "setting": "[2]", "value": "completely inhibited"}]}
{"molecule": "CC[C@H]1/C=C/C=C/C[C@@H](C)[C@H](O)[C@@](C)(O)C(=O)[C@@H](C)[C@H](O)[C@@H](C)C(=O)[C@@H](C)[C@H](O)[C@@H](C)/C=C/C(=O)O[C@@H]2[C@H](C)[C@H](CC1)O[C@]1(CC[C@H](C)[C@H](C[C@@H](C)O)O1)[C@H]2C", "note": "[Oligomycin, reference compound]", "values": [{"measurement": "inhibition at 100 µg/mL", "setting": "[3]; HUVEC, read-out: Percent Inhibition (+/− S.E.M.) of ATP generation", "value": 84, "unit": "%"}, {"measurement": "Percent Inhibition (+/− S.E.M.) of ATP generation", "setting": "[3]", "value": "83.5 +/− 4.5%"}]}
{"molecule": "NCCCCCC(=O)O", "note": "[ε-aminocaproic acid, reference compound]", "values": [{"measurement": "inhibition of 125I-labeled angiostatin binding", "setting": "[4]; 100 mM ε-aminocaproic acid, data not shown", "value": "only slightly inhibited"}]}
{"molecule": "plasminogen: purified from human plasma by affinity chromatography, 92 kDa", "values": [{"measurement": "inhibition of 125I-labeled angiostatin binding to recombinant alpha subunit", "setting": "[5]; 0.5 nM 125I-labeled angiostatin, 2500-fold molar excess of unlabeled plasminogen", "value": "not inhibited"}, {"measurement": "binding of 125I-labeled ligand to recombinant alpha subunit", "setting": "[5]; ligand blot", "value": "did not bind"}, {"measurement": "Kd", "setting": "[6]", "value": 158, "unit": "nM"}, {"measurement": "inhibition of 125I-labeled plasminogen binding", "setting": "[7]", "value": "about 80%"}, {"measurement": "inhibition of 125I-labeled angiostatin binding", "setting": "[4]; excess unlabeled plasminogen (2-fold molar excess in FIG. 2 legend)", "value": "little or no effect; also recorded: no inhibition"}]}
